Measurements as given in patent publication US20010051602A1, “Methods for increasing ApoE levels for the treatment of neurodegenerative disease” (priority 1997, published 2001).
Where “and” joins values, the source holds several entries; their conditions need not be identical. Equal values may be shown once.

Tests used:
[1] = tested on: ApoE-knockout mice; assay: ApoE knockout mouse transient focal ischemia stroke model; format: in vivo; conditions: 5 mg i.p. daily for ten days, if ApoE induction is necessary for neuroprotection
Method: To extend these animal studies, the ApoE knockout mouse may be exploited to assess the role of ApoE in probucol-mediated neuroprotection for stroke.
This protocol is carried out as similarly described for the rat model above, with some modifications. […] On the tenth day, animals are subjected to a transient focal ischemia by intraluminal occlusion of the middle cerebral artery. Infarct volume, neurological outcome, and cerebral flow will be monitored.

[2] = tested on: β-amyloid protein (1-42); assay: clinical trial: CSF β-amyloid (1-42); format: in vivo, human; conditions: individual AD patient
Description: (§1) Biological Markers: Additional biochemical markers included phenotyping of the patients ApoE and determining relative concentrations of tau protein, P-amyloid protein (1-42 and 1-40); and relative extent of lipid peroxidation.
(§2) Tables 11 and 12 summarize the changes in total β-amyloid protein (1-40 and 1-42) at one month, as a percentage of the baseline values.

[3] = tested on: Alzheimer's disease; assay: clinical trial: ADAS-Cog (extended 117 point scale); format: in vivo, human
Method: Neuropsychological Assessment: The Alzheimer's Disease Assessment Scale, Cognitive Part (ADAS-Cog) (see Rosen et al., Am. J. Psychiatr., 141:1356-1364 (1984)) was used as an objective neuropsychological measure. It consists of a battery of neuropsychological tests for different cognitive functions. The battery comes to a single score with a maximum of 70 points and is administered in about 45 minutes to patients. A 117 point extended scale version of this test was also used (see Table 5). The extended 117 pt. […] The scoring method for this modified ADAS-Cog test ranges from 0 […].

[4] = tested on: ApoE; assay: ApoE in medium of rat primary type 1 astrocyte cultures exposed to probucol, immunoblot; format: cell-based
Method: Apo E concentration was assessed in the cell culture medium by immunoblot analysis using methods previously described (Poirier et al., Neuroscience, 55:81-90 (1993)). In the absence of probucol (EtOH control) very little ApoE is detected in the media (i.e., the extracellular compartment). […] We also observed that the amount of ApoE detected in the media at 48 hours was less than the amount of ApoE in the media after only 24 hours of incubation. This time-dependent response in ApoE levels may reflect the continued division and growth of cells.

[5] = tested on: ApoE; assay: clinical trial: ApoE levels in CSF of AD patients treated with probucol, immunoblot; format: in vivo, human; conditions: probucol 1000 mg/day; for Average Change in ApoE (% baseline): one month of treatment, 8 patients
Method: Biological Marker: A lumbar puncture was performed at baseline and one month after treatment. The relative concentrations of ApoE levels in the CSF were determined by immunoblot as described by Poirer, J. et al., Neuroscience 55:81-90 (1993).
The cerebral spinal fluid (CSF) of the above subjects was analyzed for the concentration of ApoE protein by immunoblot using an internal standard. The samples for the first six patients were analyzed independently of the last two patients, thus the scales for patients 1-6 are different from the scales for patients 8 and 9.

[6] = tested on: plasma apolipoproteins; conditions: cited from earlier work
[7] = tested on: Alzheimer's disease; assay: clinical trial: Clinical Impression of Change (CIBIC-Plus); format: in vivo, human; set-up: key to CIBIC Scores, 3 months, Average / CIBIC Scores, 6 months, Average: 7-point scale: 1 = very much improved, 4 = no change, 7 = very much worse
Method: Neuropsychological Assessment: The Clinical Impression of Change (CIBIC-Plus) and the Global Deterioration Scale (GDS) were recorded at 3 and 6 months. The Clinical Impression of Change (CIBIC-Plus) consists of the holistic impression by the clinician of whether the patient has shown any change since baseline as rated on a seven point sale (marked, moderate, mild improvement, no change, or marked, moderate, mild decline). The Global Deterioration Scale rates clinically identifiable stages of dementia. […] This test provides a holistic impression by the clinician of whether the patient has shown any change since baseline. The CIBIC is scored as a seven point scale, with a range from 1=“very much improved” to 4=“no change” to 7=“very much worse.” Changes in the CIBIC score have shown only weak correlation with changes in the ADAS-Cog and have been reported to be less sensitive to change than other measures. The FDA guidelines are widely interpreted as mandating the use of the CIBIC and this scale serves to measure the impact of treatment protocols on the quality of life for the patient.

[8] = tested on: β-amyloid protein (1-40); assay: clinical trial: CSF total β-amyloid (1-40); format: in vivo, human
Description: as §1, §2

[9] = tested on: Tau protein; assay: clinical trial: Tau protein in the CSF; format: in vivo, human
Description: as §1

[10] = tested on: cortical infarct; assay: Wistar rat middle cerebral artery occlusion stroke model; format: in vivo; conditions: rats dosed i.p. daily for ten days, 2 hour middle cerebral artery occlusion, 22 hours reperfusion
Method: In particular, the Wistar rat model may be used with modifications. Briefly, rats are dosed (i.p.) daily with probucol or a saline negative control for ten days. On the tenth day, animals are then subjected to a 2 hour reversible, middle cerebral artery occlusion. Laser-Doppler flowmetry is used to monitor the ischemic period and early reperfusion. […] We predict that the cortical infarct volumes (indicative of neuronal damage) will be less in animals treated with probucol as compared to untreated animals.

[11] = average of patients, baseline average 66.8
[12] = individual AD patient, 117 is the best possible score
[13] = individual AD patient, 1 very much improved, 4 no change, 7 very much worse

Structure (SMILES): CC(C)(Sc1cc(C(C)(C)C)c(O)c(C(C)(C)C)c1)Sc1cc(C(C)(C)C)c(O)c(C(C)(C)C)c1 [probucol]
- benefit in ApoE-knockout animals [1]: little or no benefit
- [β amyloid 1-42] in the CSF, % change ([2]; 1 month as a percentage of the baseline value): 242% and 142% (2×) and 56% and 195% and 624% and 2144%
- [β amyloid 1-42] in the CSF, 1 month ([2]; average of triplicate assays): 2.48 and 3.92 and 0.76 and 1.78 and 2.15 and 0.31 and 1.06 and 1.29
- ADAS-Cog (117 point scale) score, 3 months, Average [3, 11]: 65.6
- ADAS-Cog (117 point scale) score, 6 months, Average [3, 11]: 68.1
- ADAS-Cog (117 point scale) score, 3 months [3, 12]: 73 (2×) and 51 and 63 (3×) and 83 and 56
- ADAS-Cog (117 point scale) score, 6 months [3, 12]: 74 and 49 and 82 (2×) and 63 and 58 and 72 and 65
- number of patients that appeared to stabilize or improve, ADAS-Cog (117 point scale) ([3]; six month treatment, eight patients): five
- extracellular amount of ApoE ([4]; 1 nM, 24 hours post dosing, versus EtOH control): dramatically increased
- extracellular ApoE with increasing concentrations ([4]; 100 nM and 10 uM versus 1 nM): Further increases
- amount of ApoE in the media at 48 hours versus 24 hours ([4]; 48 hours compared with 24 hours of incubation): less
- Change in ApoE (% baseline) ([5]; 1 month, individual AD patient): 118% baseline and 89% baseline and 87% baseline and 152% baseline and 105% baseline and 178% baseline and 136% baseline and 133% baseline
- ApoE 1 month (ROD) ([5]; individual AD patient, scales of patients 1-6 differ from patients 8 and 9): 2.59 ROD and 7.14 ROD and 9.17 ROD and 0.1086 ROD and 0.0861 ROD and 8.03 ROD and 14.81 ROD and 10.27 ROD
- Average Change in ApoE (% baseline) [5]: 125%
- Average Change in ApoE (% baseline) ([5]; listed as Probucol): 125%
- total plasma apoB, apoA-1, apoA-II, apoC-II and apoC-III ([6]; human, in vivo): lower
- circulating ApoE levels ([6]; probucol-treated hypercholesterolemic patients): increased
- effectiveness in subjects with apoE2/2 genotype ([6]; subjects with a very high physiological concentration of ApoE): totally uneffective
- CIBIC-Plus evaluation for the group as a whole ([7]; 6 month course of treatment): slight deterioration
- CIBIC Scores, 3 months, Average ([7]; average of patients): 3.9
- CIBIC Scores, 6 months, Average ([7]; average of patients): 5.3
- CIBIC Scores, 3 months [7, 13]: 3 (3×) and 5 (2×) and 4 (4×)
- CIBIC Scores, 6 months [7, 13]: 5 (4×) and 6 (3×) and 4
- [β amyloid 1-40] in the CSF, % change ([8]; 1 month as a percentage of the baseline value, individual AD patient): 345% and 108% and 100% and 241% and 105% and 107% and 979% and 2157%
- [β amyloid 1-40] in the CSF, 1 month ([8]; individual AD patient, average of triplicate assays): 3.44 and 3.95 and 4.96 and 7.55 and 3.26 and 3.51 and 5.35 and 2.16
- levels of β-amyloid in the CSF ([8]; one month of treatment, Alzheimer's patients, β-amyloid 1-40 and 1-42): overall increase
- Tau concentration in the CSF, % change ([9]; 1 month relative to baseline, individual AD patient): 93% and 109% and 97% and 92% and 102% and 113% and 94% and 131% and 99%
- Tau concentration in the CSF, 1 month ([9]; individual AD patient): 188 and 1099 and 251 and 1070 and 458 and 1120 and 394 and 916 and 620
- effect on Tau levels in the CSF, as a group ([9]; one month relative to baseline): no effect
- cortical infarct volumes compared to untreated animals [10]: less
